Experimental data from patent US20250352653A1, “NEURON TARGETED 2-DEOXYGLUCOSE DENDRIMER FOR IMAGING AND TREATMENT OF NEUROLOGICAL DISEASES” (Washington State University, priority 2024, published 2025).

Columns and labels:
[1] = free drug; cited from earlier work
[2] = tested on: CATH.a cells; assay: Annexin V/propidium iodide assay; type: cell-based; details: 250 μg/mL
Experimental: Apoptosis/necrosis was assessed in CATH.a cells using the FITC ApoScreen® Annexin V Apoptosis Kit. Cells were pre-treated with LPS (1 μg/mL) and H2O2 (100 μM) for 6 hours to mimic TBI-like conditions, followed by 2DG-D-Rosi treatment for 24 hours at 37° C., 5% CO2. After incubation, cells were harvested, washed twice with cold PBS, and resuspended in 100 μL of 1× Annexin Binding Buffer. Staining was performed with 10 μL Annexin V-FITC and 10 μL Propidium Iodide (PI) for 15 minutes at 2-8° C. in the dark, followed by dilution with 380 μL 1× Annexin Binding Buffer. Samples were analyzed on an Attune NxT® Flow Cytometer using BL-1 (530/30 nm) for Annexin V-FITC and YL-1 (585/16 nm) for PI. Controls included unstained, Annexin V-only, and PI-only samples. Density plots were generated to classify viable, early apoptotic, necrotic, and late apoptotic/necrotic cells. The experiment was performed in triplicate (n=3), and data was analyzed using GraphPad Prism® with statistical significance determined by a two-tailed t-test.

[3] = tested on: CATH.a neurons; assay: MTT cytocompatibility, CATH.a; type: cell-based; details: all tested concentrations, 24 h
Experimental: (§1) Cytocompatibility studies were carried out using MTT assay as described in our previous work. […] After this, all the treated cells were incubated with MTT for 3 h till the purple-colored formazan crystals appeared. For dissolving these crystals, cell culture grade DMSO was added to each of the wells and incubated for 15 min. Finally, the absorbance was recorded at 570 nm using Synergy H1 hybrid multi-mode microplate. The percentage cytocompatibility was calculated using equation 2. All the measurements were done in triplicates with proper controls.

[4] = tested on: Caspase-3/7; assay: Caspase-3/7 activity assay; type: cell-based; details: for caspase activity (confocal, ImageJ): control 100%
Experimental: For flow cytometry, 1×10^5lls per sample were incubated with Pheno Vue® 505 caspase-3/7 stain in fresh medium for 30 minutes, washed with PBS, and analyzed on an Attune NxT® Flow Cytometer using BL-1 (530/30 nm) for caspase activation detection. For confocal microscopy, 2×10^5 cells per well were seeded on poly-L-lysine-coated coverslips, stained with caspase-3/7 reagent, fixed in 4% PFA, permeabilized with 0.1% Triton® X-100, and counterstained with DAPI. Coverslips were mounted with Vectashield Plus® antifade medium and imaged using a Leica SP-5 Confocal Microscope (20× water immersion lens). The experiment was conducted in triplicate (n=3), and statistical significance was determined using GraphPad Prism® with a two-tailed t-test.

[5] = tested on: human umbilical vein endothelial cells (HUVECs); assay: MTT cytocompatibility, HUVEC; type: cell-based; details: all tested concentrations, 24 h
Experimental: as §1

[6] = Water solubility; type: physicochemical; details: Rosi and its 2DG-D conjugate
[7] = tested on: EOC 20 microglial cells; assay: MTT cytocompatibility, EOC 20; type: cell-based; details: all tested concentrations, 24 h
Experimental: as §1

[8] = tested on: CATH.a cells; assay: JC-1 mitochondrial membrane potential (MMP) assay; type: cell-based; details: for MFI of J-monomers (confocal): control ~141
Experimental: The JC-1 Mitochondrial Membrane Potential (MMP) Assay was used to assess 2DG-D-Rosi effects on CATH.a cells under TBI-like conditions via flow cytometry and confocal microscopy. Cells were pre-treated with LPS (1 μg/mL) and H2O2 (100 μM), followed by 2DG-D-Rosi treatment for 24 hours at 37° C., 5% CO2. After incubation, cells were stained with 2 μM JC-1 dye for 20 minutes at 37° C. in the dark. For flow cytometry, cells were analyzed on an Attune NxT® Flow Cytometer, with JC-1 monomers (green, depolarized mitochondria) detected in BL-1 (530/30 nm) and J-aggregates (red, polarized mitochondria) in YL-1 (585/16 nm). For confocal microscopy, cells were seeded on poly-L-lysine-coated coverslips, stained with JC-1, counterstained with DAPI, and imaged using a Leica SP-5 Confocal Microscope (20× water immersion magnification). The experiment was conducted in triplicate (n=3), and data were analyzed using GraphPad Prism® with statistical significance determined by a two-tailed t-test.

[9] = tested on: IL-6; assay: Quantitative IL-6 ELISA; type: cell-based; details: LPS:H2O2 induced CATH.a, control ~1-fold
Experimental: (§2) For determining the effect of 2DG-D-Rosi conjugates on the neuro-inflammation under in vitro conditions, the expression levels of tumor necrosis factor-alpha (TNF-α) and interleukin-6 (IL-6) were analyzed using an enzyme-linked immunosorbent assay (ELISA). The protocol was adapted from previously published literature with slight modifications. Briefly, CATH.a neurons (5×10^4 cells/well) were seeded into 96-well plates and cultured overnight. The cells were pre-treated with lipopolysaccharide (LPS; 1 μg/mL) and hydrogen peroxide (H2O2, 100 μM) and then incubated with 2DG-D-Rosi conjugates at varying concentrations (50, 100, and 250 μg/mL) for 24 hours at 37° C. in a CO2 incubator. Following the treatment, the consumed culture media was collected and centrifuged at 12,000×g for 10 minutes to remove cellular debris. A 50 μL aliquot of the supernatant was added to ELISA plates pre-coated with primary antibodies for TNF-α and IL-6, respectively, and incubated for approximately 2 h. The cytokine concentrations (pg/mL) were determined using standard calibration curves provided in the ELISA kit, adhering to the manufacturer's instructions. All experiments were performed in triplicates, with appropriate controls.

[10] = tested on: TNF-α; assay: Quantitative TNF-α ELISA; type: cell-based; details: LPS:H2O2 induced CATH.a, control 1-fold
Experimental: as §2, with “The cells were pre-treated with lipopolysaccharide (LPS; 1 μg/mL) and hydrogen peroxide (H2O2, 100 μM) and then incubated with 2DG-D-Rosi conjugates at varying concentrations (50, 100, and 250 μg/mL) for 24 hours at 37° C. in a CO2 incubator.” left out

[11] = tested on: PPARγ; assay: PPARγ expression by flow cytometry and immunofluorescence; type: cell-based; details: for PPARγ expression (confocal, ImageJ): LPS:H2O2 group 1-fold
Experimental: For flow cytometry, 1×10^5 cells per sample were fixed in 4% PFA, permeabilized with 0.2% Triton® X-100, blocked with 3% BSA, and incubated overnight at 4° C. with an anti-PPARγ antibody.
For immunofluorescence, 5×10^4 cells per well were grown on poly-L-lysine-coated coverslips, treated, washed, and blocked with 3% BSA, followed by overnight incubation with an anti-PPARγ antibody at 4° C. on a 3D shaker. […] Imaging was performed using a […] SP5 Confocal Microscope (20× water immersion lens). The experiment was conducted in triplicate (n=3), and statistical significance was determined using GraphPad Prism® with a two-tailed t-test.

CCc1ccc(CCOc2ccc(CC3SC(=O)NC3=O)cc2)nc1 (stereo not drawn) [Pio, pioglitazone]
water solubility of free Pio [1]: 4.42 µg/mL

CN(CCOc1ccc(CC2SC(=O)NC2=O)cc1)c1ccccn1 (stereo not drawn) [Rosi, rosiglitazone]
necrosis ([2]; LPS:H2O2 treated CATH.a (~31.07%)): ~1.67%
apoptosis ([2]; LPS:H2O2 treated CATH.a): ~54.6%
cytotoxicity (MTT) [3]: No toxic effects
caspase activity (confocal, ImageJ) ([4]; 50 μg/mL): ~75%
caspase activity (confocal, ImageJ) ([4]; 100 μg/mL): ~63%
caspase activity (confocal, ImageJ) ([4]; 250 μg/mL): ~68%
lowering of caspase activity ([4]; free Rosi vs LPS:H2O2, flow cytometry): ~70%
cytotoxicity (MTT) [5]: No toxic effects
solubility in water [6]: sparingly soluble
cytotoxicity (MTT) [7]: No toxic effects
MFI of J-monomers (confocal) ([8]; 50 μg/mL): ~89
MFI of J-monomers (confocal) ([8]; 100 μg/mL): 74
MFI of J-aggregates (red fluorescence) ([8]; 250 μg/mL, LPS:H2O2 group ~2.7): ~78.1
MFI of J-monomers (confocal) ([8]; 250 μg/mL): 72
healthy mitochondria, flow cytometry ([8]; LPS+H2O2 ~0.24%, 2DG-D and Rosi at 250): ~21.54%
depolarized mitochondria (J-Mon+/J-Agg-), flow cytometry ([8]; LPS+H2O2 ~95.13%, 2DG-D and Rosi at 250): ~69.73%
IL-6 levels ([9]; 50 μg/mL): 0.88 fold
IL-6 levels ([9]; 100 μg/mL): 0.86 fold
IL-6 levels ([9]; 250 μg/mL): 0.67 fold
TNF-α levels ([10]; 100 μg/mL): 0.91 fold
TNF-α levels ([10]; 250 μg/mL): 0.85 fold
TNF-α levels ([10]; 500 μg/mL): 0.77 fold
PPARγ expression (confocal, ImageJ) ([11]; 50 μg/mL): 1.82 fold
PPARγ expression (confocal, ImageJ) ([11]; 100 μg/mL): 1.79 fold
PPARγ expression (confocal, ImageJ) ([11]; 250 μg/mL): 1.9 fold
PPARγ expression MFI (flow cytometry) ([11]; LPS+H2O2 ~206, untreated ~112): ~556
